Experimental data from patent US20130183362A1, “SYNTHESIS OF ZINC ACRYLATE COPOLYMER FROM ACID FUNCTIONAL COPOLYMER, ZINC PYRITHIONE, AND COPPER COMPOUND” (ARCH CHEMICALS, INC., priority 2010, published 2013).
Read-outs that look alike come from different tables or passages of the source.

Details: SEM images; for Ave. Aspect Ratio (length/width): Hitachi S-300N, length divided by width
Protocol: All images were obtained using a Hitachi S-300N Scanning electron Microscope.
Procedure: Aspect ratio was determined by superimposing a micron scale over the particle images and visually comparing the width and length of the particles to the scale. Length divided by width determines the aspect ratio. The images were obtained using a Hitachi S-300N Scanning electron Microscope.

Row | Structure (SMILES) | Ave. Aspect Ratio (length/width) | particles having an aspect ratio greater than 15 | Ave. Aspect Ratio (length/width) (listed as commercially available milled copper pyrithione)
1 | On1ccccc1=S.On1ccccc1=S.[Cu] [Sample 507C, copper pyrithione] | 12.2 |  | 
2 | On1ccccc1=S.On1ccccc1=S.[Cu] [Sample 508D, copper pyrithione] | 9.1 |  | 
3 | On1ccccc1=S.On1ccccc1=S.[Cu] [Sample 513, copper pyrithione] | 4.3 | none of the particles | 4.3
